Laboratory results as given in ChEMBL document CHEMBL5365478, “Structure-Based Design and Synthesis of Stapled 10Panx1 Analogues for Use in Cardiovascular Inflammatory Diseases” (J Med Chem, 2023).
Blank lines part the entries; values can stand above or below the compound they belong to. Activity calls are given as the source filed them. No cut-off for these calls is given here. Bridge positions count the residues as written; N and C are the ends. Square brackets hold non-standard residues; d marks the D form. Triazole bridges read from a SMILES are 1,4-linked. Peptide text beside a SMILES is read from it. Lys(N3) = [N-]=[N+]=NCCCC[C@H](N)C(=O)O; Orn(N3) = [N-]=[N+]=NCCC[C@H](N)C(=O)O; Hpra = C#CCC[C@H](N)C(=O)O; Pra = C#CC[C@H](N)C(=O)O; Ahx = NCCCCCC(=O)O

Assays:
EA.hy 926 [1] = assay: Cytotoxicity against human EA.hy 926 cells at 12.5 to 100 uM incubated for 30 mins with compound in HOS solution by LDH assay; type: toxicity, cell-based; conditions: ea.hy 926, 0.5 h, dose 12.5-100 µM
[2] = Stability in PBS at pH 7.4 assessed as conserved alpha-helical profile at 200 uM at 20 to 90 degreeC by CD spectra analysis; type: physicochemical; conditions: buffer, pH 7.4, 200 µM
[3] = target: Pannexin-1 (Mus musculus) (UniProt Q9JIP4); assay: Inhibition of PANX1 in mouse B16-BL6 cells assessed as reduction in HOS-induced ATP release preincubated for 10 mins followed by HOS solution addition and measured after 30 mins by bioluminescence analysis; type: cell-based; conditions: dose 6.25-400 µM, time 40.0 min
Chain of Pannexin-1 (Mus musculus) (Q9JIP4 whole entry): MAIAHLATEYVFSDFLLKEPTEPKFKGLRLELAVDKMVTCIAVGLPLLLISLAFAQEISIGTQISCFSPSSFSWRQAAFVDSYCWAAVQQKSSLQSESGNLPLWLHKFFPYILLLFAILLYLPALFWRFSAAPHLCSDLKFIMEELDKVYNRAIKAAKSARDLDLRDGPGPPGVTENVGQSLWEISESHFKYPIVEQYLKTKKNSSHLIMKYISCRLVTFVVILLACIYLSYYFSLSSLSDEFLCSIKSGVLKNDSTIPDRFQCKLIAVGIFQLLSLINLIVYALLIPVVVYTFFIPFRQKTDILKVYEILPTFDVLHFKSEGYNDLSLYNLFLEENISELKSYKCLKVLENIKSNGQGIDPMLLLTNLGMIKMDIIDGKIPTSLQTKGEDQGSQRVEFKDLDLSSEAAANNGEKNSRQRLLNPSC

[4] = target: Pannexin-1 (Mus musculus) (UniProt Q9JIP4); assay: Inhibition of PANX1 in mouse B16-BL6 cells assessed as reduction in HOS-induced ATP release at around 10 nM preincubated for 10 mins followed by HOS solution addition and measured after 30 mins by bioluminescence analysis; type: cell-based; conditions: time 40.0 min
[5] = target: Pannexin-1 (Mus musculus) (UniProt Q9JIP4); assay: Inhibition of PANX1 in mouse B16-BL6 cells assessed as reduction in HOS-induced Yo-Pro-1 uptake by measuring reduction in green fluorescence at 12.5 uM preincubated for 10 mins followed by HOS solution addition and measured after 30 mins by fluorescence based analysis; type: cell-based; conditions: time 40.0 min
B16-BL6 [6] = assay: Cytotoxicity against mouse B16-BL6 cells at 6.25 to 100 uM incubated for 30 mins with compound in HOS solution by LDH assay; type: toxicity, cell-based; conditions: b16-bl6, 0.5 h, dose 6.25-100 µM
[7] = target: Pannexin-1 (Rattus norvegicus) (UniProt P60570); assay: Inhibition of PANX1 in rat H9C2 cells assessed as reduction in HOS-induced ATP release at 12.5 to 100 uM preincubated for 10 mins followed by HOS solution addition and measured after 30 mins by bioluminescence analysis; type: cell-based; conditions: dose 12.5-100 µM, time 40.0 min
Chain of Pannexin-1 (Rattus norvegicus) (P60570 whole entry): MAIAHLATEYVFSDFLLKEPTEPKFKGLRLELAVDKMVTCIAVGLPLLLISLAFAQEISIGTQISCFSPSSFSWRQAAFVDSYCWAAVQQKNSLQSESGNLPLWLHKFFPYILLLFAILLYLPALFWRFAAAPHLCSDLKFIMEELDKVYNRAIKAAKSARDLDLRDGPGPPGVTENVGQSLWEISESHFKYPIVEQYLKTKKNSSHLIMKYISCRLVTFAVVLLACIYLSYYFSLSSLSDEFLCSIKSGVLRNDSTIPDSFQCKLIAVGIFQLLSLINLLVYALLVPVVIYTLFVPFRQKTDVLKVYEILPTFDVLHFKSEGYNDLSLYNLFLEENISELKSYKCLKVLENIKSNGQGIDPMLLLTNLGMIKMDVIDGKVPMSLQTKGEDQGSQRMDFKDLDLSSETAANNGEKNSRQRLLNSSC

[8] = target: Pannexin-1 (Homo sapiens) (UniProt Q96RD7); assay: Inhibition of PANX1 in human EA.hy 926 cells assessed as reduction in HOS-induced ATP release at 12.5 to 100 uM preincubated for 10 mins followed by HOS solution addition and measured after 30 mins by bioluminescence analysis; type: cell-based; conditions: dose 12.5-100 µM, time 40.0 min
Chain of Pannexin-1 (Homo sapiens) (Q96RD7 whole entry): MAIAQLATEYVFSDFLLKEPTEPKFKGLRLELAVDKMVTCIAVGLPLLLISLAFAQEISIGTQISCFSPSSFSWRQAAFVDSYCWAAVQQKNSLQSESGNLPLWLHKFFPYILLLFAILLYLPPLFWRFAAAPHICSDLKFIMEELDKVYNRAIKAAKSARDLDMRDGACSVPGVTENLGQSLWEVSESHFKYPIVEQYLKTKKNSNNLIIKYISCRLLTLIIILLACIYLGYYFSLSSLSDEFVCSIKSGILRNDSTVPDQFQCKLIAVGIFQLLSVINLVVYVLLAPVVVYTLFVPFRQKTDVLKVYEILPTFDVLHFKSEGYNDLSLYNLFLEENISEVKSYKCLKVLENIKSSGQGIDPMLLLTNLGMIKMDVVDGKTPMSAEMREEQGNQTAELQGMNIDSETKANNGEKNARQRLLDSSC

EA.hy 926 [9] = assay: Antiinflammatory activity in TNF-alpha stimulated human EA.hy926 cells cocultured with human THP-1 cells assessed as inhibition of monocyte adhesion at 100 uM incubated for 15 mins followed by adhesion for 2 hrs; type: functional, cell-based; conditions: time 135.0 min
[10] = target: Pannexin-1 (Mus musculus) (UniProt Q9JIP4); assay: Inhibition of PANX1 in mouse B16-BL6 cells assessed as reduction in HOS-induced ATP release at 100 uM preincubated for 10 mins followed by HOS solution addition and measured after 30 mins by bioluminescence analysis; type: cell-based; conditions: time 40.0 min
B16-BL6 [11] = assay: Cytotoxicity against mouse B16-BL6 cells at 1.56 to 100 uM incubated for 30 mins with compound in HOS solution by LDH assay; type: toxicity, cell-based; conditions: b16-bl6, 0.5 h, dose 1.56-100 µM
[12] = target: Pannexin-1 (Homo sapiens) (UniProt Q96RD7); assay: Inhibition of PANX1 in human EA.hy 926 cells assessed as reduction in HOS-induced ATP release preincubated for 10 mins followed by HOS solution addition and measured after 30 mins by bioluminescence analysis; type: cell-based; conditions: time 40.0 min
[13] = target: Pannexin-1 (Mus musculus) (UniProt Q9JIP4); assay: Inhibition of PANX1 in mouse B16-BL6 cells assessed as reduction in HOS-induced Yo-Pro-1 uptake by measuring reduction in green fluorescence at 2.5 mM preincubated for 10 mins followed by HOS solution addition and measured after 30 secs to 30 mins by fluorescence based analysis; type: cell-based; conditions: time 10.5-40 min
[14] = target: Pannexin-1 (Rattus norvegicus) (UniProt P60570); assay: Inhibition of PANX1 in rat H9C2 cells assessed as reduction in HOS-induced ATP release at 2.5 mM preincubated for 10 mins followed by HOS solution addition and measured after 30 mins by bioluminescence analysis; type: cell-based; conditions: time 40.0 min
B16-BL6 [15] = assay: Cytotoxicity against mouse B16-BL6 cells at 2.5 mM incubated for 30 mins with compound in HOS solution by LDH assay; type: toxicity, cell-based; conditions: b16-bl6, 0.5 h, 2500 µM
[16] = target: Pannexin-1 (Homo sapiens) (UniProt Q96RD7); assay: Inhibition of PANX1 in human EA.hy 926 cells assessed as reduction in HOS-induced ATP release at 2.5 mM preincubated for 10 mins followed by HOS solution addition and measured after 30 mins by bioluminescence analysis; type: cell-based; conditions: time 40.0 min

SMILES: CC(=O)N[C@@H](CO)C(=O)N[C@@H](Cc1c[nH]c2ccccc12)C(=O)N[C@@H](CCCNC(=N)N)C(=O)N[C@@H](CCC(N)=O)C(=O)N[C@@H](C)C(=O)N[C@H]1Cc2cn(nn2)CCCC[C@@H](C(=O)N[C@@H](Cc2ccc(O)cc2)C(N)=O)NC(=O)[C@H](CC(=O)O)NC(=O)[C@H](C(C)C)NC(=O)[C@H](Cc2ccccc2)NC1=O
Activity (EA.hy 926 [1]): Non-Toxic | Stability [2]: Stable | inhibition [3]: Dose-Dependent Effect | inhibition [4]: inactive | inhibition [5]: inactive | Activity (B16-BL6 [6]): Non-Toxic | inhibition [7]: inactive | inhibition [8]: Active | inhibition (EA.hy 926 [9]): Active

SMILES: CC(=O)N[C@@H](CO)C(=O)N[C@@H](Cc1c[nH]c2ccccc12)C(=O)N[C@@H](CCCNC(=N)N)C(=O)N[C@@H](CCC(N)=O)C(=O)N[C@@H](C)C(=O)N[C@@H]1Cc2cn(nn2)CCCC[C@@H](C(=O)N[C@@H](Cc2ccc(O)cc2)C(N)=O)NC(=O)[C@H](CC(=O)O)NC(=O)[C@H](C(C)C)NC(=O)[C@H](Cc2ccccc2)NC1=O
inhibition [10]: inactive | Activity (B16-BL6 [11]): Non-Toxic

SMILES: CC(=O)N[C@@H](CO)C(=O)N[C@@H](Cc1c[nH]c2ccccc12)C(=O)N[C@@H](CCCNC(=N)N)C(=O)N[C@@H](CCC(N)=O)C(=O)N[C@@H](C)C(=O)N[C@@H](C)C(=O)N[C@@H](Cc1ccccc1)C(=O)N[C@H]1Cc2cn(nn2)CCCC[C@@H](C(N)=O)NC(=O)[C@H](Cc2ccc(O)cc2)NC(=O)[C@H](CO)NC(=O)[C@H](CC(=O)O)NC1=O (Ac-SWRQAAF[Pra]DSY[Lys(N3)]-NH2; triazole 8-12)
inhibition [10]: inactive

SMILES: CC(=O)N[C@@H](CO)C(=O)N[C@@H](Cc1c[nH]c2ccccc12)C(=O)N[C@@H](CCCNC(=N)N)C(=O)N[C@@H](CCC(N)=O)C(=O)N[C@@H](C)C(=O)N[C@@H](C)C(=O)N[C@@H](Cc1ccccc1)C(=O)N[C@H]1Cc2cn(nn2)CCC[C@@H](C(N)=O)NC(=O)[C@H](Cc2ccc(O)cc2)NC(=O)[C@H](CO)NC(=O)[C@H](CC(=O)O)NC1=O (Ac-SWRQAAF[Pra]DSY[Orn(N3)]-NH2; triazole 8-12)
inhibition [10]: inactive

SMILES: CC(=O)N[C@@H](CO)C(=O)N[C@@H](Cc1c[nH]c2ccccc12)C(=O)N[C@@H](CCCNC(=N)N)C(=O)N[C@@H](CCC(N)=O)C(=O)N[C@@H](C)C(=O)N[C@@H](C)C(=O)N[C@H]1Cc2cn(nn2)CCCC[C@@H](C(=O)O)NC(=O)[C@H](CO)NC(=O)[C@H](CC(=O)O)NC(=O)[C@H](C(C)C)NC1=O (Ac-SWRQAA[Pra]VDS[Lys(N3)]-OH; triazole 7-11)
inhibition [10]: inactive

SMILES: CC(=O)N[C@@H](CO)C(=O)N[C@@H](Cc1c[nH]c2ccccc12)C(=O)N[C@@H](CCCNC(=N)N)C(=O)N[C@@H](CCC(N)=O)C(=O)N[C@@H](C)C(=O)N[C@H]1CCc2cn(nn2)CCCC[C@@H](C(=O)N[C@@H](Cc2ccc(O)cc2)C(N)=O)NC(=O)[C@H](CC(=O)O)NC(=O)[C@H](C(C)C)NC(=O)[C@H](Cc2ccccc2)NC1=O (Ac-SWRQA[Hpra]FVD[Lys(N3)]Y-NH2; triazole 6-10)
inhibition [10]: Active | Activity (B16-BL6 [11]): Non-Toxic

SMILES: CC(=O)N[C@@H](CO)C(=O)N[C@@H](Cc1c[nH]c2ccccc12)C(=O)N[C@@H](CCCNC(=N)N)C(=O)N[C@@H](CCC(N)=O)C(=O)N[C@@H](C)C(=O)N[C@H]1CCCCn2cc(nn2)C[C@@H](C(=O)N[C@@H](Cc2ccc(O)cc2)C(N)=O)NC(=O)[C@H](CC(=O)O)NC(=O)[C@H](C(C)C)NC(=O)[C@H](Cc2ccccc2)NC1=O (Ac-SWRQA[Lys(N3)]FVD[Pra]Y-NH2; triazole 6-10)
inhibition [10]: Active | Activity (B16-BL6 [11]): Non-Toxic

SMILES: CC(=O)N[C@@H](CO)C(=O)N[C@@H](Cc1c[nH]c2ccccc12)C(=O)N[C@@H](CCCNC(=N)N)C(=O)N[C@@H](CCC(N)=O)C(=O)N[C@@H](C)C(=O)N[C@H]1Cc2cn(nn2)CCC[C@@H](C(=O)N[C@@H](Cc2ccc(O)cc2)C(N)=O)NC(=O)[C@H](CC(=O)O)NC(=O)[C@H](C(C)C)NC(=O)[C@H](Cc2ccccc2)NC1=O (Ac-SWRQA[Pra]FVD[Orn(N3)]Y-NH2; triazole 6-10)
inhibition [10]: inactive

SMILES: CC(C)[C@H](NC(=O)[C@H](Cc1ccccc1)NC(=O)[C@H](C)NC(=O)[C@H](C)NC(=O)[C@H](CCC(N)=O)NC(=O)[C@H](CCCNC(=N)N)NC(=O)[C@H](Cc1c[nH]c2ccccc12)NC(=O)CCCCCNC(=O)[C@@H](N)CCCCN)C(=O)N[C@@H](CC(=O)O)C(=O)N[C@@H](CO)C(=O)N[C@@H](Cc1ccc(O)cc1)C(=O)O (H-K[Ahx]WRQAAFVDSY-OH)
inhibition [12]: Active

SMILES: CCCN(CCC)S(=O)(=O)c1ccc(C(=O)O)cc1 [PROBENECID]
inhibition [13]: Active | inhibition [14]: inactive | Activity (B16-BL6 [15]): Non-Toxic | inhibition [16]: Active

Continued, in another order:

inhibition [3]: Dose-Dependent Effect | inhibition [5]: inactive | inhibition [7]: inactive | inhibition [8]: Active
SMILES: CC(=O)N[C@H]1Cc2cn(nn2)CCCC[C@@H](C(=O)N[C@@H](C)C(=O)N[C@@H](Cc2ccccc2)C(=O)N[C@H](C(=O)N[C@@H](CC(=O)O)C(=O)N[C@@H](CO)C(=O)N[C@@H](Cc2ccc(O)cc2)C(N)=O)C(C)C)NC(=O)[C@H](CCC(N)=O)NC(=O)[C@H](CCCNC(=N)N)NC(=O)[C@H](Cc2c[nH]c3ccccc23)NC1=O
Activity (EA.hy 926 [1]): Non-Toxic | Activity (B16-BL6 [6]): Non-Toxic | inhibition (EA.hy 926 [9]): Active

inhibition [10]: inactive
SMILES: CC(=O)N[C@H]1Cc2cn(nn2)CCCC[C@H](C(=O)N[C@@H](C)C(=O)N[C@@H](Cc2ccccc2)C(=O)N[C@H](C(=O)N[C@@H](CC(=O)O)C(=O)N[C@@H](CO)C(=O)N[C@@H](Cc2ccc(O)cc2)C(N)=O)C(C)C)NC(=O)[C@H](CCC(N)=O)NC(=O)[C@H](CCCNC(=N)N)NC(=O)[C@H](Cc2c[nH]c3ccccc23)NC1=O
Activity (B16-BL6 [11]): Non-Toxic

inhibition [10]: Active
SMILES: CC(=O)N[C@H]1CCc2cn(nn2)CCCC[C@@H](C(=O)N[C@@H](C)C(=O)N[C@@H](Cc2ccccc2)C(=O)N[C@H](C(=O)N[C@@H](CC(=O)O)C(=O)N[C@@H](CO)C(=O)N[C@@H](Cc2ccc(O)cc2)C(N)=O)C(C)C)NC(=O)[C@H](CCC(N)=O)NC(=O)[C@H](CCCNC(=N)N)NC(=O)[C@H](Cc2c[nH]c3ccccc23)NC1=O (Ac-[Hpra]WRQ[Lys(N3)]AFVDSY-NH2; triazole 1-5)
Activity (B16-BL6 [11]): Non-Toxic

inhibition [10]: Active
SMILES: CC(=O)N[C@H]1CCCCn2cc(nn2)C[C@@H](C(=O)N[C@@H](C)C(=O)N[C@@H](Cc2ccccc2)C(=O)N[C@H](C(=O)N[C@@H](CC(=O)O)C(=O)N[C@@H](CO)C(=O)N[C@@H](Cc2ccc(O)cc2)C(N)=O)C(C)C)NC(=O)[C@H](CCC(N)=O)NC(=O)[C@H](CCCNC(=N)N)NC(=O)[C@H](Cc2c[nH]c3ccccc23)NC1=O (Ac-[Lys(N3)]WRQ[Pra]AFVDSY-NH2; triazole 1-5)
Activity (B16-BL6 [11]): Non-Toxic

inhibition [10]: inactive
SMILES: CC(=O)N[C@H]1Cc2cn(nn2)CCC[C@@H](C(=O)N[C@@H](C)C(=O)N[C@@H](Cc2ccccc2)C(=O)N[C@H](C(=O)N[C@@H](CC(=O)O)C(=O)N[C@@H](CO)C(=O)N[C@@H](Cc2ccc(O)cc2)C(N)=O)C(C)C)NC(=O)[C@H](CCC(N)=O)NC(=O)[C@H](CCCNC(=N)N)NC(=O)[C@H](Cc2c[nH]c3ccccc23)NC1=O (Ac-[Pra]WRQ[Orn(N3)]AFVDSY-NH2; triazole 1-5)
